Values quoted from earlier work as cited in patent publication US20060275209A1, “Methods of [11c]-radiolabelling phenothiazine and phenothiazine-like compounds” (priority 2003, published 2006).

Tests used:
[1] = forms a charge transfer complex with the pigment
[2] = tested on: melanoma cells; settings: diffuses through the cellular membranes

CN(C)c1ccc2nc3ccc(N(C)C)cc3[s+]c2c1.[Cl-] [Methylene blue, 3,7-bis(dimethylamino)phenothiazine-5-ium chloride]
affinity to melanin [1]: very high affinity | accumulation in melanoma cells [2]: accumulates selectively
